Data as given in ChEMBL document CHEMBL5154791, “Optimization of a Pyrimidinone Series for Selective Inhibition of Ca2+/Calmodulin-Stimulated Adenylyl Cyclase 1 Activity for the Treatment of Chronic Pain” (J Med Chem, 2022).

How the values were obtained:
Adenylate cyclase type 8 [1] = biological target: T1, Adenylate cyclase type 8 (Homo sapiens, UniProt P40145); assay: Inhibition of Ca2+/ CAM stimulated human AC8 activity expressed in AC3 and AC6-knockout HEK293 cells assessed as A23187 stimulated cAMP accumulation incubated for 30 mins followed by […] in presence of IBMX for 1 hr by HTRF assay; assay type: cell-based
T1 sequence (P40145 whole entry): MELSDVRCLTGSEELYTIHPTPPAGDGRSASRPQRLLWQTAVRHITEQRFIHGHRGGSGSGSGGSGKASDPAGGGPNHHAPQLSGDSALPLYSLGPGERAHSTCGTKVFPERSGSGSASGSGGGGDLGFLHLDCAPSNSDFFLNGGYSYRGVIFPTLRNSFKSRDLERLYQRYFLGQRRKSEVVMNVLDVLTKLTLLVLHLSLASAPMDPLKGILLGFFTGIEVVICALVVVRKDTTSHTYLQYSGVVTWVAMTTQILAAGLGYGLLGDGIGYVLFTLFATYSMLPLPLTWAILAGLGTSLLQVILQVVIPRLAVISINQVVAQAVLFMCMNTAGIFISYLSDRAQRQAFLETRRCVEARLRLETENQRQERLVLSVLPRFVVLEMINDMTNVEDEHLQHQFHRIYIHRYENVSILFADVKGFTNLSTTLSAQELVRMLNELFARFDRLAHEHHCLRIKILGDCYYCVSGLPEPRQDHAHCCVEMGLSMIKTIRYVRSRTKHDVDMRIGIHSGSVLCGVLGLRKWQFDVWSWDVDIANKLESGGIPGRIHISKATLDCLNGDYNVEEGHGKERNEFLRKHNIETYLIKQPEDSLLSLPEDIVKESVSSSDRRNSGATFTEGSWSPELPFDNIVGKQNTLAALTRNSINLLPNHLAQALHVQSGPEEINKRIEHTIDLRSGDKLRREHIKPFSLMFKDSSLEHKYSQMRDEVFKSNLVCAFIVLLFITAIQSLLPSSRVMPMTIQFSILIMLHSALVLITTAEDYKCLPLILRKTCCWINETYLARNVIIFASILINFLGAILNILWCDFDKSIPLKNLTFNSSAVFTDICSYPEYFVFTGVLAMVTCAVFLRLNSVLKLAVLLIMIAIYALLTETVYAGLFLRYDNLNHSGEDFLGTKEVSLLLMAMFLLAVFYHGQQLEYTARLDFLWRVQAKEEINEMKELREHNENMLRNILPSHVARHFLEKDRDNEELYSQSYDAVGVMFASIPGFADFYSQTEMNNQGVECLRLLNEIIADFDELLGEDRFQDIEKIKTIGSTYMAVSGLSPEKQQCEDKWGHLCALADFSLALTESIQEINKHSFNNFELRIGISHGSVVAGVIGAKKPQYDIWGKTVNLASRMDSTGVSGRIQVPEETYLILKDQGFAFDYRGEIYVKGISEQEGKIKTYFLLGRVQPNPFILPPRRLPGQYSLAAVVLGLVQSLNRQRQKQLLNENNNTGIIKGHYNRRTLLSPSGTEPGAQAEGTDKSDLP

Adenylate cyclase type 8 [2] = biological target: T1, Adenylate cyclase type 8; assay: Inhibition of Ca2+/ CAM stimulated human AC8 activity expressed in AC3 and AC6-knockout HEK293 cells assessed as A23187 stimulated cAMP accumulation incubated for 30 mins followed by […] in presence of IBMX for 1 hr by HTRF assay relative to control; assay type: cell-based; parameters: concentration or dose not given beside the values; conditions: time 90.0 min
Adenylate cyclase type 1 = Adenylate cyclase type 1 (Homo sapiens, UniProt Q08828)
Adenylate cyclase type 1, sequence (Q08828 whole entry): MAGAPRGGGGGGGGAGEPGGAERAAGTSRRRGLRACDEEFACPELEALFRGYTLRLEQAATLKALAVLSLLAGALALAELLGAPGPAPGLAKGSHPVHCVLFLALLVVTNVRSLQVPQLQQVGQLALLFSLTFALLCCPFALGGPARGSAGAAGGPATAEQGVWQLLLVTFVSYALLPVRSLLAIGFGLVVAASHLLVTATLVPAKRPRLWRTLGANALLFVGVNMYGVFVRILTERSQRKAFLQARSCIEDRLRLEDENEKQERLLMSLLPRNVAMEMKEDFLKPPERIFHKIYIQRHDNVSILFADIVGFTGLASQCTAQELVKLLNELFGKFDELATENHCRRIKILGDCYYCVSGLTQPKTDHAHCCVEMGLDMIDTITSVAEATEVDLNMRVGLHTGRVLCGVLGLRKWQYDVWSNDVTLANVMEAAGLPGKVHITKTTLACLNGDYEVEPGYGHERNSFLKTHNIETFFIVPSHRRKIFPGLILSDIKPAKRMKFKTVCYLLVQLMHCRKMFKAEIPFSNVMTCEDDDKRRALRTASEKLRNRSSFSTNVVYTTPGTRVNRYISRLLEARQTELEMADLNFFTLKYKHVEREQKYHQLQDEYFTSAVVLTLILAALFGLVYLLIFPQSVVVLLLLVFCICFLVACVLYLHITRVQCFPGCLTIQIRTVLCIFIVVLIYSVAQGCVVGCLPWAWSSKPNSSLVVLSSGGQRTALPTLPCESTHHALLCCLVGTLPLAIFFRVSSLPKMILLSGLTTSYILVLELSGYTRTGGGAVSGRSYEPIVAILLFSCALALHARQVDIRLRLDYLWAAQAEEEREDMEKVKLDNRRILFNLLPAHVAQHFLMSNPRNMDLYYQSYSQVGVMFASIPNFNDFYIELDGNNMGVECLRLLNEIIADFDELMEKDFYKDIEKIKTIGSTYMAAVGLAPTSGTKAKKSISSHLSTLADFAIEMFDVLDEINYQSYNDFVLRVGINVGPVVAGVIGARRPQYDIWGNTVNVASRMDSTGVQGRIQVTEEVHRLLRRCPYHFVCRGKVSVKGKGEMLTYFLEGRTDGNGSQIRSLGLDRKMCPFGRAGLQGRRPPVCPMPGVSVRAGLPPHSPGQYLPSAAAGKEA
Description: Inhibition of Ca2+/ CAM stimulated human AC1 activity expressed in AC3 and AC6-knockout HEK293 cells assessed as A23187 stimulated cAMP accumulation incubated for 30 mins followed by A2318 stimulation in presence of IBMX for 1 hr by HTRF assay

Compound	IC50 (Adenylate cyclase type 8 [1]) [nM]	inhibition (Adenylate cyclase type 8 [2]) [%]	IC50 (Adenylate cyclase type 1) [nM]
CCc1cc(=O)[nH]c(-n2nc(C)cc2NC(=O)Cc2cccc(C)c2)n1	> 60000	59	9200
CCc1cc(=O)[nH]c(-n2nc(C)cc2NC(=O)c2cccc(F)c2)n1	1600	55	1400
CCc1cc(=O)[nH]c(-n2nc(C)cc2NC(=O)c2cc(C)cc(C)c2)n1	1700	27	520
CCc1cc(=O)[nH]c(-n2nc(C)cc2NC(=O)c2ccccc2)n1	35900	0	2800
CCc1cc(=O)[nH]c(-n2nc(C)cc2NC(=O)c2ccc(N(C)C)cc2)n1	1000	39	2300
CCc1cc(=O)[nH]c(-n2nc(C)cc2NC(=O)c2ccc(OCOC)cc2)n1	> 30000	–	4300
CCc1cc(=O)[nH]c(-n2nc(C)cc2NC(=O)c2ccccc2C)n1	15700	11	2200
CCc1cc(=O)[nH]c(-n2nc(C)cc2NC(=O)c2cccc(C3CC3)c2)n1	1900	17	810
CCc1cc(=O)[nH]c(-n2nc(C)cc2NC(=O)c2ccc(F)cc2)n1	780	52	790
CCc1ccc(C(=O)Nc2cc(C)nn2-c2nc(CC)cc(=O)[nH]2)cc1	6600	19	390
CCc1cc(=O)[nH]c(-n2nc(C)cc2NC(=O)c2ccc(O)cc2)n1	> 60000	–	> 60000
CCc1cc(=O)[nH]c(-n2nc(C)cc2NC(C)=O)n1	10600	–	> 30000
CCc1cc(=O)[nH]c(-n2nc(C)cc2NC(=O)c2cccc(SC)c2)n1	1300	52	630
CCc1cc(=O)[nH]c(-n2nc(C)cc2NC(=O)c2cccc(C(F)(F)F)c2)n1	1300	41	680
CCc1cc(=O)[nH]c(-n2nc(C)cc2NC(=O)c2ccc(-c3ccccc3)cc2)n1	700	32	770
CCc1cc(=O)[nH]c(-n2nc(C)cc2NC(=O)Cc2ccccc2F)n1	3400	–	16300
CCc1cc(=O)[nH]c(-n2nc(C)cc2NC(=O)c2ccc(C)cc2)n1	> 60000	27	670
CCc1cc(=O)[nH]c(-n2nc(C)cc2NC(=O)c2ccc(C(C)(C)C)cc2)n1	1200	35	970
CCc1cc(=O)[nH]c(-n2nc(C)cc2NC(=O)c2ccco2)n1	15700	20	6700
